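These data come from cells grown in 96-well plates and exposed to compound for 48 hours at five concentrations. Abbreviation: GI50, concentration required for 50% inhibition of growth.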 Calls of active or inactive are those of the source. Rule as the data show it: active = GI50 up to about 1.1 µM and inactive = higher.
How the values were obtained:
Assay in all cases: DTP human tumour cell line panel, 48 h
[1] = tested on: UACC-257
[2] = tested on: HCC 2998
[3] = tested on: MDA-N
[4] = tested on: RXF 393
[5] = tested on: OVCAR-4
[6] = tested on: RPMI-8226
[7] = tested on: HCT-116
[8] = tested on: NCI-H23
[9] = tested on: DU-145
[10] = tested on: HOP-62
[11] = tested on: 786-0
[12] = tested on: SK-MEL-2
[13] = tested on: M14
[14] = tested on: HOP-92
[15] = tested on: A549
[16] = tested on: A498
[17] = tested on: HT-29
[18] = tested on: BT-549
[19] = tested on: Hs-578T
[20] = tested on: T47D
[21] = tested on: ACHN
[22] = tested on: CCRF-CEM
[23] = tested on: SNB-75
[24] = tested on: OVCAR-8
[25] = tested on: NCI-H460
[26] = tested on: PC-3
[27] = tested on: NCI-H226
[28] = tested on: IGROV-1
[29] = tested on: OVCAR-3
[30] = tested on: UACC-62
[31] = tested on: U-251
[32] = tested on: SF-268
[33] = tested on: SW-620
[34] = tested on: MDA-MB-231
[35] = tested on: SK-MEL-28
[36] = tested on: CAKI-1
[37] = tested on: NCI/ADR-RES
[38] = tested on: SN12C
[39] = tested on: SK-MEL-5
[40] = tested on: MOLT-4
[41] = tested on: SK-OV-3
[42] = tested on: OVCAR-5
[43] = tested on: SNB-19
[44] = tested on: MDA-MB-435
[45] = tested on: KM12
[46] = tested on: COLO 205
[47] = tested on: SR
[48] = tested on: HL-60
[49] = tested on: HCT-15
[50] = tested on: LOX IMVI
[51] = tested on: SF-539
[52] = tested on: K562
[53] = tested on: NCI-H522
[54] = tested on: UO-31
[55] = tested on: SF-295
[56] = tested on: TK-10
[57] = tested on: Malme-3M
[58] = tested on: EKVX
[59] = tested on: MCF7

Measured: GI50

N=c1oc2ccc3ccccc3c2cc1C(N)=O
58.1 µM: [49]
inactive: [1] > 100 µM | [2] 49.3 µM | [3] 37.1 µM | [4] > 100 µM | [5] 58.6 µM | [6] > 100 µM | [7] 36.9 µM | [8] 48.6 µM | [9] 71 µM | [10] 48.3 µM | [11] 34 µM | [12] 19.4 µM | [13] 55.5 µM | [14] 53 µM | [15] 64.6 µM | [16] 43.7 µM | [17] 38.7 µM | [18] 89.7 µM | [19] 15.6 µM | [20] 22.6 µM | [21] 24.9 µM | [22] 35.9 µM | [23] 71.9 µM | [24] 80.5 µM | [25] 46.3 µM | [26] 18.7 µM | [27] 15.3 µM | [28] 21.6 µM | [29] 72.9 µM | [30] 28 µM | [31] 94.6 µM | [32] 31.4 µM | [33] 44 µM | [34] 25.9 µM | [35] 44.5 µM | [36] 43.5 µM | [37] 35.5 µM | [38] 39.8 µM | [39] 46.1 µM | [40] 48.6 µM | [41] 96.2 µM | [42] > 100 µM | [43] 25.1 µM | [44] 53.6 µM | [45] 16.7 µM | [46] 48.6 µM | [47] 34 µM | [48] 39.2 µM | [50] 31.2 µM

C=C1CC[C@@H]2[C@](C)(COC(=O)CCC(=O)OC)CCC[C@@]2(C)[C@@H]1CCC1=CC(=O)OC1
inactive: [1] > 100 µM | [51] > 100 µM | [3] 56 µM | [5] > 100 µM | [6] 16.1 µM | [7] 59.8 µM | [8] > 100 µM | [9] 71.4 µM | [10] > 100 µM | [11] 70.5 µM | [52] 29 µM | [12] 43.4 µM | [13] > 100 µM | [15] > 100 µM | [53] 25.9 µM | [16] > 100 µM | [17] > 100 µM | [18] 64.9 µM | [19] 77.6 µM | [20] 29.2 µM | [21] > 100 µM | [22] 28.2 µM | [24] 63 µM | [54] > 100 µM | [25] > 100 µM | [26] 41 µM | [27] 74.3 µM | [28] > 100 µM | [29] 61.4 µM | [31] > 100 µM | [33] 46.5 µM | [34] > 100 µM | [35] > 100 µM | [36] 26.2 µM | [37] 72.8 µM | [55] > 100 µM | [56] > 100 µM | [38] > 100 µM | [39] 30.5 µM | [57] > 100 µM | [40] 17.4 µM | [41] > 100 µM | [42] > 100 µM | [43] > 100 µM | [58] > 100 µM | [44] > 100 µM | [45] 43.6 µM | [46] 77.8 µM | [47] 21.5 µM | [48] 20.3 µM | [59] 38.1 µM | [50] 55.3 µM
39.5 µM: [49]

N#C/C(N)=C(C#N)/N=C/NCc1ccccc1
inactive: [1] > 100 µM | [51] > 100 µM | [2] > 100 µM | [3] > 100 µM | [5] > 100 µM | [6] > 100 µM | [7] > 100 µM | [8] > 100 µM | [9] > 100 µM | [10] > 100 µM | [11] > 100 µM | [52] > 100 µM | [12] 38.4 µM | [13] > 100 µM | [15] > 100 µM | [53] > 100 µM | [16] > 100 µM | [17] > 100 µM | [18] > 100 µM | [19] > 100 µM | [20] 75.9 µM | [21] > 100 µM | [22] > 100 µM | [23] > 100 µM | [24] > 100 µM | [54] > 100 µM | [25] > 100 µM | [26] > 100 µM | [27] > 100 µM | [28] > 100 µM | [29] > 100 µM | [30] 95.5 µM | [31] > 100 µM | [32] > 100 µM | [33] > 100 µM | [34] > 100 µM | [35] > 100 µM | [36] > 100 µM | [37] 50.1 µM | [55] > 100 µM | [56] > 100 µM | [38] > 100 µM | [39] > 100 µM | [57] > 100 µM | [40] > 100 µM | [41] > 100 µM | [42] > 100 µM | [43] > 100 µM | [58] > 100 µM | [44] > 100 µM | [45] > 100 µM | [46] > 100 µM | [47] > 100 µM | [48] > 100 µM | [59] > 100 µM | [50] > 100 µM
> 100 µM: [49]

— ChEMBL document CHEMBL1201862, “PubChem BioAssay data set” (2004)
